Laboratory results: patent US8741940B2, “Microbicidal composition” (Rohm and Haas Company, priority 2005, dated 2014)
Values joined by “and” are separate entries in the source; they are usually repeats but may differ in a detail not shown here. Equal values may be shown once. Read-outs that look alike come from different tables or passages of the source.

How the values were obtained:
Type in all cases: cell-based
[1] = system: Escherichia coli (E. coli—ATCC #8739); experiment: Synergy test, microtiter plate high resolution MIC assay, bacterium in M9GY medium; parameters: Qa (First Component A) / Qb (Second Component B): unit: ppm; details: for MIC of the component acting alone (QA / QB): E. coli 8739, M9GY, 30° C.
In short: (§1)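 High-resolution microtiter MICs spanned 2 to 10,000 ppm active, tested alongside varying BBIT or MBIT as component A. E. coli was run at ~5×10^6/mL in M9GY (0.2% glucose, 0.1% yeast extract) at 30 °C; C. albicans and A. niger at 5×10^5/mL in PDB. Synergy index is Qa/QA + Qb/QB, with >1 indicating antagonism.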

[2] = system: Aspergillus niger (A. niger—ATCC 16404); experiment: Synergy test, microtiter plate high resolution MIC assay, mold in PDB medium; parameters: Qb (Second Component B) / Qa (First Component A): unit: ppm
In short: as §1

[3] = system: Candida albicans (C. albicans—ATCC 10231); experiment: Synergy test, microtiter plate high resolution MIC assay, yeast in PDB medium; parameters: Qb (Second Component B) / Qa (First Component A): unit: ppm; details: for MIC of the component acting alone (QA / QB): C. albicans 10231, PDB, 25° C.
In short: as §1

[4] = A=MBIT, B=BBIT, E. coli 8739 - M9GY, 24 hours
[5] = A=MBIT, B=BBIT, A. niger 16404 - PDB, 4 days
[6] = A=MBIT, B=BBIT, C. albicans 10231 - PDB, 48 hours

## CCCCn1sc2ccccc2c1=O [BBIT, N-(n-butyl)-1,2-benzisothiazolin-3-one]
[1]
  Qa (First Component A): 200
  SI (synergy index): 1.00
[1]; [4]
  Qb (Second Component B): 100
  SI (synergy index): 1.00
[1]; 24 hours
  MIC of the component acting alone (QA / QB): 200 ppm and 100 ppm
[1]; 48 hours
  MIC of the component acting alone (QA / QB): 100 ppm
[1]; 72 hours
  MIC of the component acting alone (QA / QB): 100 ppm
[1]; E. coli 8739 - M9GY, 24 hours, BBIT + hexylene glycol
  SI: 1.00
[1]; E. coli 8739 - M9GY, 24 hours, BBIT alone (Qb 0) or in mixture with hexylene glycol
  Qa (First Component A = BBIT): 100
[1]; E. coli 8739 - M9GY, 24 hours, BBIT with Pentylene glycol
  SI: 1.00
[1]; E. coli 8739 - M9GY, 24 hours, BBIT with Potassium sorbate
  SI: 1.00
[1]; E. coli 8739 - M9GY, 24 hours, BBIT with Propylparaben
  SI: 1.00
[1]; E. coli 8739 - M9GY, 24 hours, BBIT with SDHA
  SI: 1.00
[1]; E. coli 8739 - M9GY, 24 hours, BBIT with Sodium benzoate
  SI: 1.00
[1]; E. coli 8739 - M9GY, 48 hours, BBIT + DTBMA
  SI: 1.00
[1]; E. coli 8739 - M9GY, 48 hours, BBIT + hexamidine diisethionate
  SI: 1.00
[1]; E. coli 8739 - M9GY, 48 hours, BBIT alone (Qb 0) or in mixture with DTBMA
  Qa (First Component A = BBIT): 100
[1]; E. coli 8739 - M9GY, 48 hours, BBIT alone (Qb 0) or in mixture with hexamidine diisethionate
  Qa (First Component A = BBIT): 6
[1]; E. coli 8739 - M9GY, 48 hours, BBIT with Phospholipid EFA
  SI: 1.00
[1]; E. coli 8739 - M9GY, 72 hours, BBIT + DMDMH
  SI: 1.00
[1]; E. coli 8739 - M9GY, 72 hours, BBIT + EDTA
  SI: 1.00
[1]; E. coli 8739 - M9GY, 72 hours, BBIT + hexetidine
  SI: 1.00
[1]; E. coli 8739 - M9GY, 72 hours, BBIT alone (Qb 0) or in mixture with DMDMH
  Qa (First Component A = BBIT): 100
[1]; E. coli 8739 - M9GY, 72 hours, BBIT alone (Qb 0) or in mixture with EDTA
  Qa (First Component A = BBIT): 100
[1]; E. coli 8739 - M9GY, 72 hours, BBIT alone (Qb 0) or in mixture with hexetidine
  Qa (First Component A = BBIT): 80
[1]; E. coli 8739 - M9GY, 72 hours, BBIT with Methylparaben
  SI: 1.00
[1]; E. coli 8739 - M9GY, 72 hours, BBIT with Phenoxyethanol
  SI: 1.00
[1]; E. coli 8739 - M9GY, 72 hours, BBIT with Phospholipid PTC
  SI: 1.00
[1]; E. coli 8739 - M9GY, 72 hours, BBIT with Quaternium-15
  SI: 1.00
[2]
  Qa (First Component A): 40
  SI (synergy index): 1.00
[2]; A. niger 16404, PDB, 4 days, 25° C.
  MIC of the component acting alone (QA / QB): 15 ppm
[2]; A. niger 16404 - PDB, 3 days, BBIT + hexylene glycol
  SI: 1.00
[2]; A. niger 16404 - PDB, 3 days, BBIT alone (Qb 0) or in mixture with hexylene glycol
  Qa (First Component A = BBIT): 15
[2]; A. niger 16404 - PDB, 3 days, BBIT with Methylparaben
  SI: 1.00
[2]; A. niger 16404 - PDB, 3 days, BBIT with Phospholipid PTC
  SI: 1.00
[2]; A. niger 16404 - PDB, 3 days, BBIT with Potassium sorbate
  SI: 1.00
[2]; A. niger 16404 - PDB, 4 days, BBIT + hexetidine
  SI: 1.00
[2]; A. niger 16404 - PDB, 4 days, BBIT alone (Qb 0) or in mixture with hexetidine
  Qa (First Component A = BBIT): 20
[2]; A. niger 16404 - PDB, 4 days, BBIT with Pentylene glycol
  SI: 1.00
[2]; A. niger 16404 - PDB, 4 days, BBIT with Phospholipid EFA
  SI: 1.00
[2]; A. niger 16404 - PDB, 4 days, BBIT with Quaternium-15
  SI: 1.00
[2]; A. niger 16404 - PDB, 7 days, BBIT + DMDMH
  SI: 1.00
[2]; A. niger 16404 - PDB, 7 days, BBIT + DTBMA
  SI: 1.00
[2]; A. niger 16404 - PDB, 7 days, BBIT + EDTA
  SI: 1.00
[2]; A. niger 16404 - PDB, 7 days, BBIT alone (Qb 0) or in mixture with DMDMH
  Qa (First Component A = BBIT): 80
[2]; A. niger 16404 - PDB, 7 days, BBIT alone (Qb 0) or in mixture with DTBMA
  Qa (First Component A = BBIT): 40
[2]; A. niger 16404 - PDB, 7 days, BBIT alone (Qb 0) or in mixture with EDTA
  Qa (First Component A = BBIT): 40
[2]; A. niger 16404 - PDB, 7 days, BBIT with Phenoxyethanol
  SI: 1.00
[2]; A. niger 16404 - PDB, 7 days, BBIT with Propylparaben
  SI: 1.00
[2]; A. niger 16404 - PDB, 7 days, BBIT with SDHA
  SI: 1.00
[2]; A. niger 16404 - PDB, 7 days, BBIT with Sodium benzoate
  SI: 1.00
[2]; [5]
  Qb (Second Component B): 40
  SI (synergy index): 1.00
[3]
  Qa (First Component A): 10
  SI (synergy index): 1.00
[3]; [6]
  Qb (Second Component B): 6
  SI (synergy index): 1.00
[3]; 24 hours
  MIC of the component acting alone (QA / QB): 7.5 ppm and 6 ppm and 8 ppm
[3]; 48 hours
  MIC of the component acting alone (QA / QB): 10 ppm and 7.5 ppm and 8 ppm
[3]; C. albicans 10231 - PDB, 24 hours, BBIT + DMDMH
  SI: 1.00
[3]; C. albicans 10231 - PDB, 24 hours, BBIT + DTBMA
  SI: 1.00
[3]; C. albicans 10231 - PDB, 24 hours, BBIT + EDTA
  SI: 1.00
[3]; C. albicans 10231 - PDB, 24 hours, BBIT + hexamidine diisethionate
  SI: 1.00
[3]; C. albicans 10231 - PDB, 24 hours, BBIT + hexylene glycol
  SI: 1.00
[3]; C. albicans 10231 - PDB, 24 hours, BBIT alone (Qb 0) or in mixture with DMDMH
  Qa (First Component A = BBIT): 7.5
[3]; C. albicans 10231 - PDB, 24 hours, BBIT alone (Qb 0) or in mixture with DTBMA
  Qa (First Component A = BBIT): 15
[3]; C. albicans 10231 - PDB, 24 hours, BBIT alone (Qb 0) or in mixture with EDTA
  Qa (First Component A = BBIT): 7.5
[3]; C. albicans 10231 - PDB, 24 hours, BBIT alone (Qb 0) or in mixture with hexamidine diisethionate
  Qa (First Component A = BBIT): 10
[3]; C. albicans 10231 - PDB, 24 hours, BBIT alone (Qb 0) or in mixture with hexylene glycol
  Qa (First Component A = BBIT): 10
[3]; C. albicans 10231 - PDB, 24 hours, BBIT with Methylparaben
  SI: 1.00
[3]; C. albicans 10231 - PDB, 24 hours, BBIT with Pentylene glycol
  SI: 1.00
[3]; C. albicans 10231 - PDB, 24 hours, BBIT with Phenoxyethanol
  SI: 1.00
[3]; C. albicans 10231 - PDB, 24 hours, BBIT with Phospholipid EFA
  SI: 1.00
[3]; C. albicans 10231 - PDB, 24 hours, BBIT with Phospholipid PTC
  SI: 1.00
[3]; C. albicans 10231 - PDB, 24 hours, BBIT with Potassium sorbate
  SI: 1.00
[3]; C. albicans 10231 - PDB, 24 hours, BBIT with Propylparaben
  SI: 1.00
[3]; C. albicans 10231 - PDB, 24 hours, BBIT with Quaternium-15
  SI: 1.00
[3]; C. albicans 10231 - PDB, 24 hours, BBIT with SDHA
  SI: 1.00
[3]; C. albicans 10231 - PDB, 48 hours, BBIT with Sodium benzoate
  SI: 1.00
[3]; C. albicans 10231 - PDB, 72 hours, BBIT + hexetidine
  SI: 1.00
[3]; C. albicans 10231 - PDB, 72 hours, BBIT alone (Qb 0) or in mixture with hexetidine
  Qa (First Component A = BBIT): 15
